Test results as given in ChEMBL document CHEMBL1149656, “Respiratory syncytial virus fusion inhibitors. Part 6: an examination of the effect of structural variation of the benzimidazol-2-one heterocycle moiety” (Bioorg Med Chem Lett, 2007).
pEC50: −log10 of the molar value.

How the values were obtained:
[1] = system: Respiratory syncytial virus; experiment: Antiviral activity against RSV Long in Hep2 cells; format: functional, organism-based; conditions: human respiratory syncytial virus, HEp-2
[2] = Cytotoxicity against human Hep2 cells; format: cell-based, HEp-2
[3] = system: Respiratory syncytial virus; experiment: Antiviral activity against RSV Long with F1 protein K349R mutation in Hep2 cells; format: functional, organism-based; conditions: hep-2
[4] = Metabolic stability in human liver microsomes; format: ADME, Microsome
[5] = system: Respiratory syncytial virus; experiment: Reduction of viral RNA in lungs of RSV-infected BALB/c mouse at 50 mg/kg by RT-PCR method; format: functional, Lung

CC(C)CCn1c(CN2C(=O)N(C3CC3)S(=O)(=O)c3ccccc32)nc2cc(CN)ccc21
pEC50 [1]: 8.52
CC50 [2]: 7030 nM
pEC50 [3]: 7.70

N#CCCCn1c(CN2C(=O)N(C3CC3)S(=O)(=O)c3ccccc32)nc2ccccc21
pEC50 [1]: 7.26
CC50 [2]: > 244000 nM

CC(C)CCn1c(Cn2c(=O)n(Cc3ccc(C(=O)O)cc3)c(=O)c3ccccc32)nc2ccccc21
pEC50 [1]: 8.05
CC50 [2]: 19300 nM

O=C1CSc2ccccc2N1Cc1nc2ccccc2n1CCCCF
pEC50 [1]: 5.99
CC50 [2]: > 96400 nM

N#CCCCCn1c(CN2C(=O)CS(=O)(=O)c3ccccc32)nc2ccccc21
pEC50 [1]: 5.87
CC50 [2]: > 270000 nM

CCCCNCc1ccc2c(c1)nc(Cn1c(=O)n(C3CC3)c(=O)c3ccccc31)n2CCC(C)C
pEC50 [1]: < 3.72
CC50 [2]: 4150 nM

CC1(C)C(=O)N(Cc2nc3ccccc3n2CCCC#N)c2ccccc21
pEC50 [1]: 7.72
CC50 [2]: > 100000 nM

CC(C)CCn1c(CN2C(=O)C(O)c3ccccc32)nc2ccccc21 (centres undefined)
pEC50 [1]: 6.79
CC50 [2]: 3310 nM

CC(C)CCn1c(CN2C(=O)C(C)(O)c3ccccc32)nc2ccccc21 (centres undefined)
pEC50 [1]: 7.01
CC50 [2]: 101000 nM

NCc1ccc2c(c1)nc(Cn1c(=O)n(CC(F)(F)F)c(=O)c3ccccc31)n2CCCCF
pEC50 [1]: 8.10
CC50 [2]: 11800 nM
pEC50 [3]: < 6.30
half-life [4]: > 1.67 h
log10 TCID50 [5]: 1.6

COC(=O)c1ccc2c(c1)nc(Cn1c(=O)n(C3CC3)c(=O)c3ccccc31)n2CCC(C)C
pEC50 [1]: < 3.66
CC50 [2]: 230 nM

CC(C)CCn1c(CN2C(=O)C(=O)c3ccccc32)nc2ccccc21
pEC50 [1]: 6.64
CC50 [2]: 69800 nM

CC1(C)Sc2ccccc2N(Cc2nc3ccccc3n2CCCCF)C1=O
pEC50 [1]: < 3.60
CC50 [2]: 32600 nM

CCOC(=O)c1c(OC)c(=O)n(Cc2nc3ccccc3n2CCCCF)c2ccccc12
pEC50 [1]: 6.83
CC50 [2]: 61600 nM

Cn1c(=O)c2ccccc2n(Cc2nc3ccccc3n2CCCCF)c1=O
pEC50 [1]: 7.44
CC50 [2]: > 25900 nM

COc1cc(=O)n(Cc2nc3ccccc3n2CCCCF)c2ccccc12
pEC50 [1]: 6.68
CC50 [2]: 59500 nM

COc1cc(=O)n(Cc2nc3cc(CN)ccc3n2CCCCO)c2ccccc12
pEC50 [1]: 8.10
CC50 [2]: 81500 nM
pEC50 [3]: < 6.30

CC(C)CCn1c(CN2C(=O)C(CC(=O)NCCc3ccccc3)c3ccccc32)nc2ccccc21 (centres undefined)
pEC50 [1]: 6.42
CC50 [2]: 940 nM

CC(C)CCn1c(CN2C(=O)C(CC(=O)NCc3ccccc3)c3ccccc32)nc2ccccc21 (centres undefined)
pEC50 [1]: 6.96
CC50 [2]: 720 nM

O=c1c(Br)cc2ccccc2n1Cc1nc2ccccc2n1CCCCF
pEC50 [1]: 6.10
CC50 [2]: 26200 nM

O=c1c2ccccc2n(Cc2nc3ccccc3n2CCCCO)c(=O)n1C1CC1
pEC50 [1]: 7.60
CC50 [2]: 42600 nM

CC1(C)C(=O)N(Cc2nc3ccccc3n2CCCCF)c2ccccc2S1(=O)=O
pEC50 [1]: 5.12
CC50 [2]: 158000 nM

CN(C)CCn1c(CN2C(=O)CCc3ccccc32)nc2ccccc21
pEC50 [1]: 6.34
CC50 [2]: 153000 nM

CNCc1ccc2c(c1)nc(Cn1c(=O)n(C3CC3)c(=O)c3ccccc31)n2CCC(C)C
pEC50 [1]: 6.10
CC50 [2]: 17900 nM

O=C1CS(=O)(=O)c2ccccc2N1Cc1nc2ccccc2n1CCCCF
pEC50 [1]: 6.64
CC50 [2]: 211000 nM

CC(C)CCn1c(CN2C(=O)N(CC(=O)O)S(=O)(=O)c3ccccc32)nc2ccccc21
pEC50 [1]: 6.58
CC50 [2]: 60200 nM

CCOC(=O)Cn1c(=O)c2ccccc2n(Cc2nc3ccccc3n2CCn2cnnn2)c1=O
pEC50 [1]: 6.54
CC50 [2]: 8060 nM

CN1C(=O)N(Cc2nc3ccccc3n2CCCCF)c2ccccc2S1(=O)=O
pEC50 [1]: 7.43
CC50 [2]: 87700 nM

N#CCCCCn1c(CN2C(=O)CCc3ccccc32)nc2ccccc21
pEC50 [1]: 5.96
CC50 [2]: 27100 nM

CCc1cc2ccccc2n(Cc2nc3ccccc3n2CCCCF)c1=O
pEC50 [1]: 6.04
CC50 [2]: 85100 nM

CC(C)CCn1c(CN2C(=O)C(CC(=O)O)c3ccccc32)nc2ccccc21 (centres undefined)
pEC50 [1]: 6.15
CC50 [2]: 16500 nM

O=C1N(Cc2nc3ccccc3n2CCCCF)c2ccccc2S(=O)(=O)N1C1CC1
pEC50 [1]: 6.36
CC50 [2]: 111000 nM

COC(=O)c1ccc(Cn2c(=O)c3ccccc3n(Cc3nc4ccccc4n3CCC(C)C)c2=O)cc1
pEC50 [1]: 6.59
CC50 [2]: 11200 nM

N#CCCCn1c(Cn2c(=O)oc3ccccc32)nc2ccccc21
pEC50 [1]: 5.60
CC50 [2]: > 300000 nM

CC(C)CCn1c(CN2C(=O)CS(=O)(=O)c3ccccc32)nc2ccccc21
pEC50 [1]: 7.23
CC50 [2]: 63000 nM

CC(C)CCn1c(CN2C(=O)Cc3ccccc32)nc2ccccc21
pEC50 [1]: 7.49
CC50 [2]: 8580 nM

CC(C)CCn1c(Cn2c(=O)n(C3CC3)c(=O)c3ccccc32)nc2cc(CO)ccc21
pEC50 [1]: 6.50
CC50 [2]: 62100 nM

O=c1ccc2ccccc2n1Cc1nc2ccccc2n1CCCCF
pEC50 [1]: 5.64
CC50 [2]: 103000 nM

O=C(O)c1ccc(Cn2c(=O)c3ccccc3n(Cc3nc4ccccc4n3CCn3cnnn3)c2=O)cc1
pEC50 [1]: 6.26
CC50 [2]: 54700 nM

CC(C)CCn1c(Cn2c(=O)n(C3CC3)c(=O)c3ccccc32)nc2cc(CN)ccc21
pEC50 [1]: 7.96
CC50 [2]: 8580 nM

CC(C)CCn1c(Cn2c(=O)n(CC(=O)O)c(=O)c3ccccc32)nc2ccccc21
pEC50 [1]: 5.99
CC50 [2]: > 221000 nM

Cn1c(=O)c2ccccc2n(Cc2nc3ccccc3n2CCCCO)c1=O
pEC50 [1]: 7.09
CC50 [2]: 48600 nM

CN1C(=O)N(Cc2nc3ccccc3n2CCCCO)c2ccccc2S1(=O)=O
pEC50 [1]: 7.72
CC50 [2]: 219000 nM

O=c1c(O)cc2ccccc2n1Cc1nc2ccccc2n1CCCCF
pEC50 [1]: < 3.56
CC50 [2]: 20200 nM

CC(C)CCn1c(CN2C(=O)CSc3ccccc32)nc2ccccc21
pEC50 [1]: 6.56
CC50 [2]: 6780 nM

NCc1ccc2c(c1)nc(Cn1c(=O)n(CC(F)(F)F)c(=O)c3ccccc31)n2CCCCO
pEC50 [1]: 8.10
CC50 [2]: 52700 nM
pEC50 [3]: < 6.30

NCc1ccc2c(c1)nc(Cn1c(=O)n(C3CC3)c(=O)c3ccccc31)n2CCCCF
pEC50 [1]: 8.05
CC50 [2]: 40600 nM
pEC50 [3]: < 6.30
half-life [4]: > 1.67 h
log10 TCID50 [5]: 1.4

CC(C)CCn1c(Cn2c(=O)n(C3CC3)c(=O)c3ccccc32)nc2cc(C(=O)O)ccc21
pEC50 [1]: < 4.16
CC50 [2]: 102000 nM

O=C(O)Cn1c(=O)c2ccccc2n(Cc2nc3ccccc3n2CCn2cnnn2)c1=O
pEC50 [1]: 5.28
CC50 [2]: 213000 nM

O=c1c2ccccc2n(Cc2nc3ccccc3n2CCCCF)c(=O)n1C1CC1
pEC50 [1]: 7.30
CC50 [2]: 38200 nM

N#CCCCn1c(Cn2c(=O)n(C3CC3)c(=O)c3ccccc32)nc2ccccc21
pEC50 [1]: 6.77
CC50 [2]: 9050 nM
pEC50 [3]: < 6.30

COc1cc(=O)n(Cc2nc3cc(CN)ccc3n2CCCCF)c2ccccc12
pEC50 [1]: 8.05
CC50 [2]: 24000 nM
pEC50 [3]: < 5.30

CC(C)CCn1c(Cn2c(=O)oc3ccccc32)nc2ccccc21
pEC50 [1]: 7.36
CC50 [2]: 30700 nM

O=C(O)c1c(O)c(=O)n(Cc2nc3ccccc3n2CCCCF)c2ccccc12
pEC50 [1]: 4.59
CC50 [2]: > 38600 nM

CS(=O)(=O)CCCn1c(Cn2c(=O)n(CC(F)(F)F)c(=O)c3ccccc32)nc2cc(CN)ccc21
pEC50 [1]: 7.68
CC50 [2]: > 123000 nM
pEC50 [3]: 6.30

CC(C)CCn1c(CN2C(=O)N(CC(=O)OC(C)(C)C)S(=O)(=O)c3ccccc32)nc2ccccc21
pEC50 [1]: 7.08
CC50 [2]: 18400 nM

NCc1ccc2c(c1)nc(Cn1c(=O)n(C3CC3)c(=O)c3ccccc31)n2CCCCO
pEC50 [1]: 7.74
CC50 [2]: > 181000 nM
pEC50 [3]: < 6.30
half-life [4]: > 1.67 h
log10 TCID50 [5]: 0.45

CC(C)CCn1c(CN2C(=O)C(CC(=O)N(C)C)c3ccccc32)nc2ccccc21 (centres undefined)
pEC50 [1]: 6.69
CC50 [2]: 4670 nM

CCOC(=O)Cn1c(=O)c2ccccc2n(Cc2nc3ccccc3n2CCC(C)C)c1=O
pEC50 [1]: 5.73
CC50 [2]: 16600 nM

COC(=O)c1ccc(Cn2c(=O)c3ccccc3n(Cc3nc4ccccc4n3CCn3cnnn3)c2=O)cc1
pEC50 [1]: 6.77
CC50 [2]: 25300 nM

CN1C(=O)N(Cc2nc3ccccc3n2CCCS(C)(=O)=O)c2ccccc2S1(=O)=O
pEC50 [1]: 5.24
CC50 [2]: 34500 nM

CC(C)CCn1c(CN2C(=O)C(Cc3ccccc3)C(=O)c3ccccc32)nc2ccccc21 (centres undefined)
pEC50 [1]: 5.74
CC50 [2]: 20100 nM
